Results as given in patent publication US20070249670A1, “Glycogen Phosphorylase Inhibitor Compounds and Pharmaceutical Compositions Thereof” (SMITHKLINE BEECHAM CORPORATION, priority 2004, published 2007).
pIC50: −log10 of the molar value.

Target: T1, human liver glycogen phosphorylase a (HLGPa) (Homo sapiens, UniProt P06737)
T1 construct: creating a full-length cDNA fused at the 5′ end to codons for methionine-glycine-alanine-histidine; 6xHis tag (leader Met-Gly-Ala-His6-Gly-Gly) (N); made in house; host or cells: E. coli (bacterial expression plasmid pTXK1007LTev)
T1 sequence (P06737 2-847 limits assumed): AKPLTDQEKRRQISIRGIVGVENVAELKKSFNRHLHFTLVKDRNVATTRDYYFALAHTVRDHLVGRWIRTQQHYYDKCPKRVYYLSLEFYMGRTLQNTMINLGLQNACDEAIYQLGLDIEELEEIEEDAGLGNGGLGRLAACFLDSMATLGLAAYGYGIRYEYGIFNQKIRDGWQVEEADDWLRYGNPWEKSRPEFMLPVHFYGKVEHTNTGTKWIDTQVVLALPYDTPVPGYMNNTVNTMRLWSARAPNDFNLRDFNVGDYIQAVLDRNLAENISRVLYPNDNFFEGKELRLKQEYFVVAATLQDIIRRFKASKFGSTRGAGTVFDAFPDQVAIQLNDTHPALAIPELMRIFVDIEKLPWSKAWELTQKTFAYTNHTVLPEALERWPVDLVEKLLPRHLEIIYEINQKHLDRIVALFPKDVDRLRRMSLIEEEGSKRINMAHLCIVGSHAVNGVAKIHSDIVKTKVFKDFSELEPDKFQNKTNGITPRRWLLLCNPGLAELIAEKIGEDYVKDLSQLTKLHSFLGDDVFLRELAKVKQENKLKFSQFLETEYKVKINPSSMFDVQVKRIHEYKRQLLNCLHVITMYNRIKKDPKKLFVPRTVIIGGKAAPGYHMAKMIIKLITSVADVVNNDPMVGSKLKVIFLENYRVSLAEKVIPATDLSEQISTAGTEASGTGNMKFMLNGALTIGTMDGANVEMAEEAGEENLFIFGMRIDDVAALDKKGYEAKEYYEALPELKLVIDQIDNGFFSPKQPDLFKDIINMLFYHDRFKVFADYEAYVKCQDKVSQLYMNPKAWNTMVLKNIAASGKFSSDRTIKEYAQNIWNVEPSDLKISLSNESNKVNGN
Assay: Human liver glycogen phosphorylase a enzymatic activity assay (coupled, fluorescent resorufin readout, with and without 10 mM glucose)
Type: biochemical
Settings: human liver glycogen phosphorylase a enzymatic activity assay

SMILES | pIC50
O=C(Cc1c(Cl)cccc1Cl)Nc1cc2ccccc2cc1C(=O)N[C@H](C(=O)O)C1CCCCC1 [Example 155, (2S)-cyclohexyl{[(3-{[(2,6-dichlorophenyl)acetyl]amino}-2-naphthalenyl)carbonyl]amino}ethanoic acid] | 5.17
O=C(Nc1cc(Cl)ccc1C(=O)N[C@H](C(=O)O)C1CCCCC1)Nc1c(Cl)cccc1Cl [Example 156, (2S)({[4chloro2({[(2,6dichlorophenyl)amino]carbonyl}amino)phenyl]carbonyl}amino)(cyclohexyl)ethanoic acid] | 7.09
Cc1cccc(C)c1NC(=O)Nc1cc(Cl)ccc1C(=O)N[C@H](C(=O)O)C1CCCCC1 [Example 157, (2S)-({[4-chloro-2-({[(2,6-dimethylphenyl)amino]carbonyl}amino)phenyl]carbonyl}amino)(cyclohexyl)ethanoic acid] | 6.62
CCc1cccc(C)c1NC(=O)Nc1cc2ccccc2cc1C(=O)N[C@H](C(=O)O)C1CCCCC1 [Example 159, (2S)-cyclohexyl{[3-({[(2-ethyl-6-methylphenyl)amino]carbonyl}amino)-2-naphthoyl]amino}ethanoic acid] | 7.24
O=C(Nc1cc2ccccc2cc1C(=O)N[C@H](C(=O)O)C1CCCCC1)Nc1c(Cl)cccc1C(F)(F)F [Example 160, (2S)-({3-[({[2-chloro-6-(trifluoromethyl)phenyl]amino}carbonyl)amino]-2-naphthoyl}amino)(cyclohexyl)ethanoic acid] | 7.17
O=C(Cc1c(Cl)cc(C(F)(F)F)cc1Cl)Nc1cc2ccccc2cc1C(=O)N[C@H](C(=O)O)C1CCCCC1 [Example 161, (2S)-cyclohexyl{[3-({[2,6-dichloro-4-(trifluoromethyl)phenyl]acetyl}amino)-2-naphthoyl]amino}ethanoic acid] | 6.96
O=C(Cc1c(Cl)cc(Cl)cc1Cl)Nc1cc2ccccc2cc1C(=O)N[C@H](C(=O)O)C1CCCCC1 [Example 162, (2S)-cyclohexyl[(3-{[(2,4,6-trichlorophenyl)acetyl]amino}-2-naphthoyl)amino]ethanoic acid] | 7.34
Cc1cccc(C)c1NC(=O)Nc1cc2ccccc2cc1C(=O)NCCC(=O)O [Example 163, N-[3-({[(2,6-dimethylphenyl)amino]carbonyl}amino)-2-naphthoyl]-beta-alanine] | 6.29
O=C(Nc1cc(Cl)ccc1C(=O)O)Nc1c(Cl)cccc1Cl [Example 165, 4-Chloro-2-({[(2,6-dichlorophenyl)amino]carbonyl}amino)benzoic acid] | 4.82
Cc1cccc(C)c1NC(=O)Nc1cc(Cl)ccc1C(=O)O [Example 166] | 5.06
Cc1cccc(C)c1NC(=O)Nc1cc(Cl)ccc1C(=O)N[C@H](C(=O)O)C1CCCCC1 [Example 167, (2S)-({[4-Chloro-2-({[(2,6-dimethylphenyl)amino]carbonyl}amino)phenyl]carbonyl}amino)(cyclohexyl)-ethanoic acid] | 6.41
O=C(Nc1cc(Cl)ccc1C(=O)N[C@H](C(=O)O)C1CCCCC1)Nc1c(Cl)cccc1Cl [Example 168, (2S)-({[4-Chloro-2-({[(2,6-dichlorophenyl)amino]carbonyl}amino)phenyl]carbonyl}amino)(cyclohexyl)-ethanoic acid] | 6.70
Cc1ccc(NC(=O)Nc2c(C)cccc2C)c(C(=O)N[C@H](C(=O)O)C2CCCCC2)c1 [Example 169, (2S)Cyclohexyl({[2({[(2,6dimethylphenyl)amino]carbonyl}amino)-5-methylphenyl]carbonyl}amino)ethanoic acid] | 6.17
Cc1cccc(C)c1NC(=O)Nc1cc(Cl)ccc1C(=O)NCC(=O)O [Example 170, N{[4chloro2({[(2,6dimethylphenyl)amino]carbonyl}amino)phenyl]carbonyl}glycine] | 5.54
O=C(Nc1cc(Cl)ccc1C(=O)N[C@H](C(=O)O)C1CCCCC1)Nc1c(Cl)cc(Cl)cc1Cl [Example 171, (2S)-({[4-Chloro-2-({[(2,4,6-trichlorophenyl)amino]carbonyl}amino)phenyl]carbonyl}amino)(cyclohexyl)-ethanoic acid] | 6.48
Cc1cccc(Cl)c1NC(=O)Nc1cc(Cl)ccc1C(=O)N[C@H](C(=O)O)C1CCCCC1 [Example 172, (2S)-({[4-Chloro-2-({[(2-chloro-6-methylphenyl)amino]carbonyl}-amino)phenyl]carbonyl}amino)(cyclohexyl)ethanoic acid] | 6.74

The remaining lines, values ahead:

pIC50 | SMILES
6.51 | Cc1cccc(C)c1NC(=O)Nc1cc(Br)ccc1C(=O)N[C@H](C(=O)O)C1CCCCC1 [Example 173, (2S)-({[4-Bromo-2-({[(2,6-dimethylphenyl)amino]carbonyl}amino)phenyl]carbonyl}amino)(cyclohexyl)-ethanoic acid]
6.11 | Cc1cccc(C)c1NC(=O)Nc1cc(Cl)ccc1C(=O)N[C@@H](CC(=O)O)C(=O)O [Example 174, N-{[4-Chloro-2-({[(2,6-dimethylphenyl)amino]carbonyl}amino)phenyl]carbonyl}-L-aspartic acid]
6.79 | Cc1cccc(C)c1NC(=O)Nc1cc(-c2ccccc2)ccc1C(=O)N[C@H](C(=O)O)C1CCCCC1 [Example 175, (2S)-Cyclohexyl({[3-({[(2,6-dimethylphenyl)amino]carbonyl}amino)-4-biphenylyl]carbonyl}amino)ethanoic acid]
6.12 | Cc1ccc(C(=O)N[C@H](C(=O)O)C2CCCCC2)c(NC(=O)Nc2c(C)cccc2C)c1 [Example 176, (2S)-cyclohexyl({[2-({[(2,6-dimethylphenyl)amino]carbonyl}amino)-4-methylphenyl]carbonyl}amino)ethanoic acid]
7.00 | O=C(Nc1cc(Cl)c(Cl)cc1C(=O)N[C@H](C(=O)O)C1CCCCC1)Nc1c(Cl)cccc1Cl [Example 177, (2S)-Cyclohexyl({[4,5-dichloro-2-({[(2,6-dichlorophenyl)amino]-carbonyl}amino)phenyl]carbonyl}amino)ethanoic acid]
5.63 | Cc1cccc(C)c1NC(=O)Nc1cc(C(F)(F)F)ccc1C(=O)N[C@H](C(=O)O)C1CCCCC1 [Example 178, (2S)-cyclohexyl({[2-({[(2,6-dimethylphenyl)amino]carbonyl}amino)-4-(trifluoromethyl)phenyl]carbonyl}amino)ethanoic acid]
7.46 | Cc1cc(C)c(NC(=O)Nc2cc(Cl)ccc2C(=O)N[C@H](C(=O)O)C2CCCCC2)c(C)c1 [Example 179, (2S)-({[4-Chloro-2-({[(2,4,6-trimethylphenyl)amino]carbonyl}-amino)phenyl]carbonyl}amino)(cyclohexyl)ethanoic acid]
7.03 | Cc1cccc(C)c1NC(=O)Nc1cc(Cl)c(Cl)cc1C(=O)N[C@H](C(=O)O)C1CCCCC1 [Example 180, (2S)-Cyclohexyl({[4,5-dichloro-2-({[(2,6-dimethylphenyl)amino]carbonyl}amino)phenyl]carbonyl}amino)ethanoic acid]
7.00 | Cc1cccc(C)c1NC(=O)Nc1cc(-c2cccnc2)ccc1C(=O)N[C@H](C(=O)O)C1CCCCC1 [Example 181, (2S)-Cyclohexyl({[2-({[(2,6-dimethylphenyl)amino]carbonyl}amino)-4-(3-pyridinyl)phenyl]carbonyl}amino)ethanoic acid]
7.77 | Cc1cc(C)c(NC(=O)Nc2cc(-c3ccccc3)ccc2C(=O)N[C@H](C(=O)O)C2CCCCC2)c(C)c1 [Example 182, (2S)-Cyclohexyl({[3-({[(2,4,6-trimethylphenyl)amino]carbonyl}-amino)-4-biphenylyl]carbonyl}amino)ethanoic acid]
7.00 | Cc1cccc(C)c1NC(=O)Nc1cc(-c2cccs2)ccc1C(=O)N[C@H](C(=O)O)C1CCCCC1 [Example 183, (2S)-Cyclohexyl({[2-({[(2,6-dimethylphenyl)amino]carbonyl}amino)-4-(2-thienyl)phenyl]carbonyl}amino)ethanoic acid]
6.66 | Cc1cccc(C)c1NC(=O)Nc1cc(-c2ccsc2)ccc1C(=O)N[C@H](C(=O)O)C1CCCCC1 [Example 184, (2S)-Cyclohexyl({[2-({[(2,6-dimethylphenyl)amino]carbonyl}amino)-4-(3-thienyl)phenyl]carbonyl}amino)ethanoic acid]
6.77 | Cc1cccc(C)c1NC(=O)Nc1cc(-c2ccncc2)ccc1C(=O)N[C@H](C(=O)O)C1CCCCC1 [Example 185, (2S)-Cyclohexyl({[2-({[(2,6-dimethylphenyl)amino]carbonyl}amino)-4-(4-pyridinyl)phenyl]carbonyl}amino)ethanoic acid]
6.47 | O=C(Cc1c(Cl)cc(Cl)cc1Cl)Nc1cc(-c2ccccc2)ccc1C(=O)N[C@H](C(=O)O)C1CCCCC1 [Example 186, (2S)-Cyclohexyl{[(3-{[(2,4,6-trichlorophenyl)acetyl]amino}-4-biphenylyl)carbonyl]amino}ethanoic acid]
